According to patent US20230085307A1, “PYRIDAZINONE COMPOUND AND HERBICIDE” (NISSAN CHEMICAL CORPORATION, priority 2019, published 2023):

Experiments:
wild oat [1] = experiment: Test Example 4: herbicidal effect by soil treatment (Table 19, symbol I); type: in vivo, wild oat (Avena fatua)
Outline: (§1)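 Step 1: sow seeds in sterilized diluvial soil, cover ~1.5 cm. Step 2: spray diluted emulsion onto soil surface at predetermined rate. Step 3: greenhouse, 25–30° C, three weeks. Step 4: grade effect on each plant by earlier criteria.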

persian speedwell [2] = experiment: Test Example 5: herbicidal effect by foliage application, plastic box (Table 20, symbol R); type: in vivo, Persian speedwell (Veronica persica); conditions: foliage application, AAH 320 g/ha, three weeks after application
Outline: (§2)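 Foliar spray test: emulsion formulation diluted in water to a set application rate, sprayed onto 14-day-old plants raised in diluvial soil at 25° C to 30° C under glass. Both herbicidal effect and crop effect rated visually three weeks later.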

windgrass [3] = experiment: Test Example 5: herbicidal effect by foliage application, plastic box (Table 20, symbol L); type: in vivo, windgrass (Apera spica-venti); conditions: foliage application, AAH 320 g/ha, three weeks after application
Outline: as §2

Italian ryegrass [4] = experiment: Test Example 5: herbicidal effect by foliage application, plastic box (Table 20, symbol K); type: in vivo, Italian ryegrass (Lolium multiflorum); conditions: foliage application, AAH 320 g/ha, three weeks after application
Outline: as §2

lambsquarters [5] = experiment: Test Example 4: herbicidal effect by soil treatment (Table 19, symbol O); type: in vivo, lambsquarters (Chenopodium album)
Outline: as §1

barnyard grass [6] = experiment: Test Example 3: herbicidal effect by foliage application, Wagner pot (Table 18, symbol H); type: in vivo, barnyard grass (Echinochloa crus-galli); conditions: 320 g/ha
Outline: (§3)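 Plants were sown in alluvial soil held under 0.1–0.5 cm standing water and grown 14 days in a greenhouse at 25–30 °C. An emulsifiable formulation, water-diluted to the set dose, was then sprayed onto the foliage, and effects were scored three weeks later using previously defined criteria.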

redroot pigweed [7] = experiment: Test Example 5: herbicidal effect by foliage application, plastic box (Table 20, symbol N); type: in vivo, redroot pigweed (Amaranthus retroflexus); conditions: foliage application, AAH 320 g/ha, three weeks after application
Outline: as §2

wild oat [8] = experiment: Test Example 5: herbicidal effect by foliage application, plastic box (Table 20, symbol I); type: in vivo, wild oat (Avena fatua); conditions: foliage application, AAH 320 g/ha, three weeks after application
Outline: as §2

Chinese sprangletop = experiment: Test Example 3: herbicidal effect by foliage application, Wagner pot (Table 18, symbol D); type: in vivo, chinese sprangletop (Leptochloa chinensis); conditions: 320 g/ha
Outline: as §3

redroot pigweed [9] = experiment: Test Example 4: herbicidal effect by soil treatment (Table 19, symbol N); type: in vivo, redroot pigweed (Amaranthus retroflexus)
Outline: as §1

green foxtail [10] = experiment: Test Example 4: herbicidal effect by soil treatment (Table 19, symbol G); type: in vivo, green foxtail (Setaria viridis)
Outline: as §1

rice flat sedge = experiment: Test Example 3: herbicidal effect by foliage application, Wagner pot (Table 18, symbol E); type: in vivo, rice flat sedge (Cyperus iria); conditions: 320 g/ha
Outline: as §3

velvetleaf [11] = experiment: Test Example 5: herbicidal effect by foliage application, plastic box (Table 20, symbol M); type: in vivo, velvetleaf (Abutilon theophrasti); conditions: foliage application, AAH 320 g/ha, three weeks after application
Outline: as §2

barnyard grass [12] = experiment: Test Example 4: herbicidal effect by soil treatment (Table 19, symbol H); type: in vivo, barnyard grass (Echinochloa crus-galli)
Outline: as §1

chickweed [13] = experiment: Test Example 5: herbicidal effect by foliage application, plastic box (Table 20, symbol P); type: in vivo, common chickweed (Stellaria media); conditions: foliage application, AAH 320 g/ha, three weeks after application
Outline: as §2

barnyard grass [14] = experiment: Test Example 5: herbicidal effect by foliage application, plastic box (Table 20, symbol H); type: in vivo, barnyard grass (Echinochloa crus-galli); conditions: foliage application, AAH 320 g/ha, three weeks after application
Outline: as §2

windgrass [15] = experiment: Test Example 4: herbicidal effect by soil treatment (Table 19, symbol L); type: in vivo, windgrass (Apera spica-venti)
Outline: as §1

Italian ryegrass [16] = experiment: Test Example 4: herbicidal effect by soil treatment (Table 19, symbol K); type: in vivo, Italian ryegrass (Lolium multiflorum)
Outline: as §1

blackgrass [17] = experiment: Test Example 4: herbicidal effect by soil treatment (Table 19, symbol J); type: in vivo, blackgrass (Alopecurus myosuroides)
Outline: as §1

lambsquarters [18] = experiment: Test Example 5: herbicidal effect by foliage application, plastic box (Table 20, symbol O); type: in vivo, lambsquarters (Chenopodium album); conditions: foliage application, AAH 320 g/ha, three weeks after application
Outline: as §2

southern crabgrass [19] = experiment: Test Example 5: herbicidal effect by foliage application, plastic box (Table 20, symbol F); type: in vivo, southern crabgrass (Digitaria ciliaris); conditions: foliage application, AAH 320 g/ha, three weeks after application
Outline: as §2

green foxtail [20] = experiment: Test Example 5: herbicidal effect by foliage application, plastic box (Table 20, symbol G); type: in vivo, green foxtail (Setaria viridis); conditions: foliage application, AAH 320 g/ha, three weeks after application
Outline: as §2

chickweed [21] = experiment: Test Example 4: herbicidal effect by soil treatment (Table 19, symbol P); type: in vivo, common chickweed (Stellaria media)
Outline: as §1

blackgrass [22] = experiment: Test Example 5: herbicidal effect by foliage application, plastic box (Table 20, symbol J); type: in vivo, blackgrass (Alopecurus myosuroides); conditions: foliage application, AAH 320 g/ha, three weeks after application
Outline: as §2

southern crabgrass [23] = experiment: Test Example 4: herbicidal effect by soil treatment (Table 19, symbol F); type: in vivo, southern crabgrass (Digitaria ciliaris)
Outline: as §1

velvetleaf [24] = experiment: Test Example 4: herbicidal effect by soil treatment (Table 19, symbol M); type: in vivo, velvetleaf (Abutilon theophrasti)
Outline: as §1

persian speedwell [25] = experiment: Test Example 4: herbicidal effect by soil treatment (Table 19, symbol R); type: in vivo, Persian speedwell (Veronica persica)
Outline: as §1

[26] = amount of applied herbicide 320 g/ha

SMILES | R: persian speedwell, herbicidal effect (persian speedwell [2]) | L: windgrass, herbicidal effect (windgrass [3]) | K: Italian ryegrass, herbicidal effect (Italian ryegrass [4]) | herbicidal effect on H (barnyard grass), rating 0-5 (barnyard grass [6]) | N: redroot pigweed, herbicidal effect (redroot pigweed [7]) | I: wild oat, herbicidal effect (wild oat [8]) | herbicidal effect on D (Chinese sprangletop), rating 0-5 (Chinese sprangletop) | herbicidal effect on E (rice flat sedge), rating 0-5 (rice flat sedge) | M: velvetleaf, herbicidal effect (velvetleaf [11]) | P: chickweed, herbicidal effect (chickweed [13]) | H: barnyard grass, herbicidal effect (barnyard grass [14]) | O: lambsquarters, herbicidal effect (lambsquarters [18]) | F: southern crabgrass, herbicidal effect (southern crabgrass [19]) | G: green foxtail, herbicidal effect (green foxtail [20]) | J: blackgrass, herbicidal effect (blackgrass [22]) | other results
C#CCOc1ccccc1-c1sc2ccccc2c1-c1c(O)c(C)nn(C)c1=O [1-112] | 5 (Herbicidal rate of 90% or more (almost completely withered)) | 5 (Herbicidal rate of 90% or more (almost completely withered)) | 3 (Herbicidal rate of 40% or more and less than 70%) | 4 (Herbicidal rate of 70% or more and less than 90%) | 5 (Herbicidal rate of 90% or more (almost completely withered)) | 5 (Herbicidal rate of 90% or more (almost completely withered)) | 3 (Herbicidal rate of 40% or more and less than 70%) | 3 (Herbicidal rate of 40% or more and less than 70%) | 4 (Herbicidal rate of 70% or more and less than 90%) | 5 (Herbicidal rate of 90% or more (almost completely withered)) | 4 (Herbicidal rate of 70% or more and less than 90%) | 1 (Herbicidal rate of 5% or more and less than 20%) | 5 (Herbicidal rate of 90% or more (almost completely withered)) | 5 (Herbicidal rate of 90% or more (almost completely withered)) | 5 (Herbicidal rate of 90% or more (almost completely withered)) | herbicidal effect rating, I: wild oat (wild oat [1]; [26]): 0 (Herbicidal rate of 5% or less (almost no effect)); herbicidal effect rating, O: lambsquarters (lambsquarters [5]; [26]): 0 (Herbicidal rate of 5% or less (almost no effect)); herbicidal effect rating, N: redroot pigweed (redroot pigweed [9]; [26]): 1 (Herbicidal rate of 5% or more and less than 20%); herbicidal effect rating, G: green foxtail (green foxtail [10]; [26]): 1 (Herbicidal rate of 5% or more and less than 20%); herbicidal effect rating, H: barnyard grass (barnyard grass [12]; [26]): 0 (Herbicidal rate of 5% or less (almost no effect)); herbicidal effect rating, L: windgrass (windgrass [15]; [26]): 5 (Herbicidal rate of 90% or more (almost completely withered)); herbicidal effect rating, K: Italian ryegrass (Italian ryegrass [16]; [26]): 0 (Herbicidal rate of 5% or less (almost no effect)); herbicidal effect rating, J: blackgrass (blackgrass [17]; [26]): 4 (Herbicidal rate of 70% or more and less than 90%); herbicidal effect rating, P: chickweed (chickweed [21]; [26]): 5 (Herbicidal rate of 90% or more (almost completely withered)); herbicidal effect rating, F: southern crabgrass (southern crabgrass [23]; [26]): 0 (Herbicidal rate of 5% or less (almost no effect)); herbicidal effect rating, M: velvetleaf (velvetleaf [24]; [26]): 3 (Herbicidal rate of 40% or more and less than 70%); herbicidal effect rating, R: persian speedwell (persian speedwell [25]; [26]): 5 (Herbicidal rate of 90% or more (almost completely withered))
C=Cc1ccc(-c2sc3ccccc3c2-c2c(O)c(C)nn(C)c2=O)cc1 [1-127] | 5 (Herbicidal rate of 90% or more (almost completely withered)) | 5 (Herbicidal rate of 90% or more (almost completely withered)) | 5 (Herbicidal rate of 90% or more (almost completely withered)) | 0 (Herbicidal rate of 5% or less (almost no effect)) | 5 (Herbicidal rate of 90% or more (almost completely withered)) | 0 (Herbicidal rate of 5% or less (almost no effect)) | 3 (Herbicidal rate of 40% or more and less than 70%) | 5 (Herbicidal rate of 90% or more (almost completely withered)) | 5 (Herbicidal rate of 90% or more (almost completely withered)) | 5 (Herbicidal rate of 90% or more (almost completely withered)) | 4 (Herbicidal rate of 70% or more and less than 90%) | 5 (Herbicidal rate of 90% or more (almost completely withered)) | 2 (Herbicidal rate of 20% or more and less than 40%) | 4 (Herbicidal rate of 70% or more and less than 90%) | 1 (Herbicidal rate of 5% or more and less than 20%) | I: wild oat, herbicidal effect rating (wild oat [1]; AAH 320 g/ha): 0 (Herbicidal rate of 5% or less (almost no effect)); O: lambsquarters, herbicidal effect rating (lambsquarters [5]; AAH 320 g/ha): 4 (Herbicidal rate of 70% or more and less than 90%); N: redroot pigweed, herbicidal effect rating (redroot pigweed [9]; AAH 320 g/ha): 5 (Herbicidal rate of 90% or more (almost completely withered)); G: green foxtail, herbicidal effect rating (green foxtail [10]; AAH 320 g/ha): 0 (Herbicidal rate of 5% or less (almost no effect)); H: barnyard grass, herbicidal effect rating (barnyard grass [12]; AAH 320 g/ha): 0 (Herbicidal rate of 5% or less (almost no effect)); L: windgrass, herbicidal effect rating (windgrass [15]; AAH 320 g/ha): 0 (Herbicidal rate of 5% or less (almost no effect)); K: Italian ryegrass, herbicidal effect rating (Italian ryegrass [16]; AAH 320 g/ha): 5 (Herbicidal rate of 90% or more (almost completely withered)); J: blackgrass, herbicidal effect rating (blackgrass [17]; AAH 320 g/ha): 0 (Herbicidal rate of 5% or less (almost no effect)); P: chickweed, herbicidal effect rating (chickweed [21]; AAH 320 g/ha): 0 (Herbicidal rate of 5% or less (almost no effect)); F: southern crabgrass, herbicidal effect rating (southern crabgrass [23]; AAH 320 g/ha): 0 (Herbicidal rate of 5% or less (almost no effect)); M: velvetleaf, herbicidal effect rating (velvetleaf [24]; AAH 320 g/ha): 2 (Herbicidal rate of 20% or more and less than 40%); R: persian speedwell, herbicidal effect rating (persian speedwell [25]; AAH 320 g/ha): 4 (Herbicidal rate of 70% or more and less than 90%)
